Laboratory results from patent publication US10894794B1, “Substituted [1,2,4]triazolo[4,3-a]pyrazines as antidiabetics” (King Abdulaziz University, priority 2019, dated 2021).
Marks after values point to notes of the source that are not given here.

What was measured:
Format in all cases: in vivo
[1] = tested on: 14 h overnight fasted diabetic mice; experiment: Oral glucose tolerance test (OGTT) after single dose; details: for glucose-lowering activity in OGTT compared with sitagliptin (in words): single dose 50 mg/kg; for Relative potency to sitagliptin (OGTT AUC) / AUC in OGTT, % change from diabetic control / AUC in OGTT, Δ from diabetic control / AUC in OGTT, X (arithmetic mean): single oral dose 50 mg/kg; for AUC in OGTT, % change from diabetic control / AUC in OGTT, Δ from diabetic control / AUC in OGTT, X (arithmetic mean): 2 h before glucose loading; for AUC in OGTT, X (arithmetic mean): AUC 0-120 min
Description: The oral glucose tolerance test was done in 14 h overnight fasted diabetic mice that were pretreated with a single oral dose of the tested compounds. Each of the tested agents was suspended in sodium carboxymethyl cellulose (CMC-Na) (1% in distilled water) and the dosing volume was adjusted to 10 ml/kg body weight per mouse. Then an oral glucose load was administered (2 g/kg) 2 h after drug treatment. Blood glucose levels were determined using the Accu-check Go® (Roche Diagnostics, Michigan, USA). Blood samples were collected just before drug administration (Fasting Blood glucose), then 2 h after drug treatment and before glucose loading. Blood samples collection was continued at 20, 40, 60 and 120 min intervals after glucose loading.
Animals were distributed between 17 groups (n=6) as follow: • a. Group 1: Animals were 14 h overnight-fasted normoglycemic mice and vehicle-treated (1% CMC-Na) at a dose of 10 ml/kg. • b. Group 2: Overnight fasted diabetic mice received the vehicle (1% CMC-Na) at a dosing volume of 10 ml/kg and served as a negative control. • c. Group 3: Overnight fasted diabetic mice received sitagliptin at a dose of 50 mg/kg in 1% CMC (in a volume of 10 ml/kg) and served as positive control. • a. Groups 4-17: Animals of these groups were overnight fasted diabetic mice received the tested compounds 128, 129, 130, 131, at a dose of 50 mg/kg in 1% CMC (volume of 10 ml/kg).

[2] = tested on: 14 h overnight-fasted diabetic mice; experiment: Blood glucose after introduction of food for one hour (meal tolerance test); details: for antihyperglycemic activity after introduction of food (blood glucose rise and total AUC(0-180), in words): 50 mg/kg, 3 h before introduction of food; for Area under the curve AUC(0-180) after meal feeding: Day 1, 50 mg/kg oral, 3 hr pretreated
Description: The rational of this test was to determine the ability of the tested compounds to modulate glucose utilization after the introduction of food, after 3 h of drug administration to 14 h overnight-fasted mice (feeding with normal diet was done for 1 hr only, then food was removed during the remaining time of the test). This model is analogous to oral glucose tolerance tests (OGTT) used clinically to evaluate glycemic control, except that the meal was composed of fats, proteins and carbohydrates, and thus was a more realistic representation of the nutritional makeup of normal food. The main purpose is that during meal digestion, food contents e.g. carbohydrates, proteins and fats, were reported to cause an increase in the production of the GLP-I from the L-cells in ileum and colon. The produced GLP-I goes into circulation directly and affects insulin secretion from pancreatic β-cells. Both the GPL-I and insulin levels are expected to be high especially in the presence of a […] inhibitor.
Animals were Distributed Between 17 Groups (n=6) as Follows: • a. Group 1. Animals of this group were overnight-fasted normoglycemic mice and received the vehicle (1% CMC-Na) at a volume of 10 ml/kg/day for 4 consecutive days. • b. Group 2: overnight-fasted diabetic mice received the vehicle (1% CMC-Na) at a volume of 10 ml/kg/day for 4 consecutive days and served as a negative control. • c. Group 3: overnight fasted diabetic mice received sitagliptin at a dose of 50 mg/kg/day for 4 consecutive days in 1% CMC (in a volume of 10 ml/kg) and served as positive control. • d. Groups 4-19: Animals of these groups were overnight-fasted diabetic mice and received the tested compounds 128, 129, 130, 131,140, 142 at a dose of 50 mg/kg/day for 4 consecutive days in 1% CMC (volume of 10 ml/kg). Food was introduced for one hour only then food was removed immediately. Blood glucose levels were determined just before and 3 h after drug administration and then at 0, 60, 120 and 180 min after meal. Blood Sampling and Blood Glucose Determination
(§1) Blood samples were collected from the tail vein and the blood glucose level was determined. Curves of blood glucose levels (mg/dL) versus the time intervals (min) were constructed and the area under the curves (AUCs) were calculated by the method of calculation embedded in GraphPad Prism® v. 5.0 (GraphPad Software, San Diego, Calif., USA). AUCs of the curves of the different groups were compared and tested for significance against control groups.

STZ-diabetic mice = experiment: Fasting blood glucose of diabetic mice during six days of treatment; details: for activity in controlling the rise of blood glucose levels in streptozotocin diabetic animals (in words) / control of fasting blood sugar compared with sitagliptin and the other compounds (in words): 50 mg/kg/day; for activity in controlling the rise of blood glucose levels in streptozotocin diabetic animals (in words): 6-day interval; for control of fasting blood sugar compared with sitagliptin and the other compounds (in words): 6 days; for Blood glucose level, fasting: 50 mg/kg/day oral, diabetic mice, mean ± SEM
From the text: Our objective was to test the efficacy of the synthesized compounds for their potential to reduce blood glucose in STZ-diabetic mice. The synthesized compounds Nos. 128, 129, 130, 131,140, 142 were expected to act through the inhibition of the DPP-IV enzyme, which is responsible for the degradation of the entero-peptide GLP-I. In turn, GLP-I increases insulin and decreases glucagon release from the pancreatic islets (β and α-cells respectively). So this part of the project was designed to study the effect of the synthesized gliptin simulated compounds on blood glucose levels and their efficacy to increase glucose utilization in diabetic mice through: • a. The effect of the tested compounds in a dose of 50 mg/kg/day on fasting blood glucose blood levels of diabetic mice during six days of treatment. • b. Oral glucose tolerance test (OGTT) through oral glucose loading, 2 h after treatment with single oral dose (50 mg/kg) of the tested compounds in 14 h overnight fasted mice. • c. OGTT through oral glucose loading, 2 h after treatment with the 6th oral dose (50 mg/kg) of the tested compounds in 14 h overnight fasted mice. • d. The effect of the pretreatment with the tested compounds at an oral dose of 50 mg/kg on blood glucose levels, 3 h before and 3 h after meal feeding (feeding for one hour only, then food was removed immediately) in 14 h overnight-fasted diabetic mice.
as §1
All data are presented as means±SEM. Statistical significance was evaluated by analysis of variance (ANOVA) followed by Tukey-Kramer's post hoc test for multiple comparisons. The “t” of the paired data was used to test the significance of the values of the fasting blood glucose compared to the values before treatment. Statistical significance was accepted at a level of p<0.05.

SMILES | glucose-lowering activity in OGTT compared with sitagliptin (in words) [1] | Relative potency to sitagliptin (OGTT AUC) [1] | AUC in OGTT, % change from diabetic control [1] | AUC in OGTT, Δ from diabetic control [1] | AUC in OGTT, X (arithmetic mean) [1] | antihyperglycemic activity after introduction of food (blood glucose rise and total AUC(0-180), in words) [2] | Area under the curve AUC(0-180) after meal feeding [2] | activity in controlling the rise of blood glucose levels in streptozotocin diabetic animals (in words) (STZ-diabetic mice) | control of fasting blood sugar compared with sitagliptin and the other compounds (in words) (STZ-diabetic mice) | control of fasting blood sugar compared with sitagliptin and the other compounds (in words) (STZ-diabetic mice; listed as 130) | Blood glucose level, fasting (STZ-diabetic mice; Day 1) | Blood glucose level, fasting (STZ-diabetic mice; Day 4) | Blood glucose level, fasting (STZ-diabetic mice; Day 5)
C[C@H](NC(=O)c1cccc(Cl)c1)C(=O)N1CCn2c(nnc2C(F)(F)F)C1 [GLP-130] | higher glucose-lowering activity than sitagliptin | 1.32 | −32.01% | -16345 mg·min/dL | 34720* mg · dL^−1 · min | significant antihyperglycemic activity | 50478 ± mg · dL^−1 · min | significant activity | most consistent and extended activities | comparable to that of sitagliptin |  |  | 
O=C(CN1CCn2c(nnc2C(F)(F)F)C1)NC1CCCCC1 [GLP-140] | less potent than sitagliptin | 0.69 | −16.89% | -8626 mg·min/dL | 42439 mg·min/dL | significant antihyperglycemic activity | 72873 ± mg · dL^−1 · min | significant activity | comparable to that of sitagliptin |  | 210.0 ± 12.345 mg/dL |  | 
N#Cc1cccc(NC(=O)CN2CCn3c(nnc3C(F)(F)F)C2)c1 [GLP-142] | less potent than sitagliptin | 0.76 | −18.51% | -9452 mg·min/dL | 41613 mg·min/dL | significant antihyperglycemic activity |  | significant activity | comparable to that of sitagliptin |  | 230.0 ± 13.769 mg/dL | 188.8 ± 25.784 mg/dL | 205.4 ± 39.315 mg/dL
